Results published in publication PMC12116762, “Topobexin targets the Topoisomerase II ATPase domain for beta isoform-selective inhibition and anthracycline cardioprotection” (Nature Communications, 2025).
Values joined by “and” are separate entries in the source; they are usually repeats but may differ in a detail not shown here. Equal entries are not always repeated.

Key:
[1] = system: γH2AX; test: γH2AX levels in NVCM (Western blotting); format: cell-based, rat; design: γH2AX level, mean: scale not given here; conditions: for γH2AX level: independent replicates
Protocol: TOP2B and γH2AX levels in NVCM were determined as follows. After incubation, 4 × 10^5 rat neonatal cardiomyocytes were lysed with 75 µL of 2% SDS in 0.1 M Tris (pH 7.4) and boiled at 95 °C for 5 min. The protein content of each sample was determined by the BCA method and 10 μg of total protein were loaded onto a polyacrylamide gel (7.5% for TOP2B, 12% for γH2AX, Bio-Rad TGX stain-free gels). After approximately 75 min of electrophoresis (150 V, Bio-Rad Mini-PROTEAN Tetra Cell), the gels were transblotted onto nitrocellulose membranes using a semi-dry method in Transblot Turbo (Bio-Rad, USA). The next day, the membranes were blocked for 1 h in 5% skimmed milk powder in 0.05% TBS-T at room temperature (RT). For TOP2 analysis, membranes were incubated with rabbit anti-TOP2A/B (1:2,000, ab109524, Abcam, UK) in 1% BSA in PBS for 1 h at RT, washed 6 times for 5 min in 0.05% TBS-T and then incubated with HRP-labeled F(ab’)2 goat anti-rabbit IgG (1:10,000, ab6112, Abcam, UK) in 0.05% TBS-T for 1 h RT and washed again (6 × 5 min in 0.05% TBS-T). For γH2AX analysis, membranes were incubated with mouse anti-γH2AX (1:5,000; ab26350, Abcam, UK) in 5% BSA in PBS for 1 h at RT, washed with 0.05% PBS-T for 6 × 5 min, incubated with HRP-conjugated anti-mouse IgG (1:40,000; A9044 Sigma Aldrich, USA) in 5% BSA in PBS for 1 h RT and finally washed with 0.05% PBS-T for 6 times 5 min. Target proteins were visualized using a chemiluminescent detection substrate (Clarity Western ECL Substrate, Bio-Rad, USA) and a Gel Doc EZ with Image Lab software (Bio-Rad, USA). Full, uncropped images of all blots present in the manuscript figures are included in the source data file.
Densitometric quantification was performed using Image Lab software (Bio-Rad). Stain-free technology was used to visualize the total protein on the gel and normalize the total protein amount in each line. Each presented data point was obtained from distinct sample.

[2] = system: caspase 3/7; test: Caspase 3/7 activity in NVCM (Caspase-Glo); format: cell-based, rat; conditions: for Csp3/7 activity: independent replicates
Protocol: (§1) Caspase activity was assessed on NVCM cells using luciferase-based kits for caspase 3/7, 8 and 9 (Caspase-Glo® 3/7, 8 and 9 assay systems; Promega) according to the manufacturer’s instructions on 384-well plates (Greiner Bio-One). Luminescence signal was measured using Tecan M200 multifunctional plate-reader. All measured groups were corrected for total protein concentration (BCA assay) and were expressed as fold change of the signal over corresponding untreated control group. Each presented data point was obtained from distinct sample. Statistical significance was determined using ratio paired t-test, two-tailed.

[3] = system: caspase 9; test: Caspase 9 activity in NVCM (Caspase-Glo); format: cell-based, rat; conditions: for Csp9 activity: independent replicates
Protocol: as §1

[4] = system: HL-60 cell line; test: Antiproliferative activity and interference with DAU (MTT), HL-60; format: cell-based, human; conditions: for HL-60 proliferation (MTT), mean of independent replicates: Suppl.Fig.8c
Protocol: Antiproliferative effects of studied compounds alone or in combination with DAU were assayed, as described previously, using HL-60 cell line (ATCC® Catalog Number: CCL-240TM, lot 5036502; American Type Culture Collection, Manassas, VA) derived from a patient with acute promyelocytic leukaemia. The cells were cultured in RPMI-1640 medium supplemented with 10% FBS, 50 U/mL penicillin, and 50 μg/mL streptomycin solution at 37 °C in a humidified atmosphere of 5% CO2. For the experiments, cells were seeded on 96-well plates (TPP, Switzerland) at a density of 10,000 cells per well ([…]). […] Proliferation was assessed by the MTT assay. Briefly, 25 µL of 3 mg/mL MTT solution (3(4,5-dimethyl-2-thiazolyl)-2,5-diphenyl-2H-tetrazolium bromide) in PBS was added to each well, and after 2 h of incubation at 37 °C the cells were lysed with lysis buffer (isopropanol, 0.1 M HCl, 5% Triton X-100) for 30 minutes at RT. After the formazan was dissolved, the absorbance of the samples was measured at 570 nm and a reference wavelength at 690 nm (the 690 nm background absorbance was subtracted from the 570 nm values). Data are expressed as mean ± SD from four independent experiments. Normalized values were plotted as a function of inhibitor concentration to determine IC50 values using Prism 9 (GraphPad). Statistical significance was evaluated by ANOVA with the Holm-Sidak post hoc test (P ≤ 0.05, marked as significant difference against control (c) or DAU (d)).

[5] = system: γH2AX; test: γH2AX levels in HL-60 cells (Western blotting); format: cell-based, human; conditions: for γH2AX level, mean of independent replicates: DAU mean = 100, Suppl.Fig.8d
[6] = system: rabbits; test: Chronic anthracycline cardiotoxicity model in rabbits
Protocol: Thirty-eight rabbits were used for this purpose using the following study design. Chronic cardiotoxicity was induced by DAU (3 mg/kg, i.v., once weekly for 10 weeks, n = 11), while the control group received the same volume of saline (1 ml/kg, n = 9) in the same way. […] Animal survival was monitored daily, while body weight change was recorded weekly. The experiment was scheduled to end a week after the last dosing of the compounds studied.
Cardiac damage induced by DAU was quantified by determination of cardiac troponin T in plasma before the 1st, 5th, 8th and 10th doses and at the end of the study using a high sensitivity assay (Elecsys Troponin T high sensitive STAT test, Roche Diagnostics, Switzerland, detection limit of 0.003 μg/L). The area under curve (AUC) of the plasma concentration of cardiac troponin T was determined using GraphPad Prism.
The systolic function of the LV was examined throughout the experiment without invasiveness using echocardiography (Vivid 4, probe 10.5 MHz, GE HeathCare) and invasively at the scheduled end of the experiment using LV catheterization (a Millar catheter 2.3 F, Millar Instruments, USA). In the echocardiography examination, the M-mode was used to determine the dimensions of the LV and the fractional shortening of the LV (LVFS) was calculated as an index of systolic function as described previously[46]. Similarly, from the change in LV pressures determined by catheterization of the LV, dP/dtmax was calculated as an index of systolic function as previously described[47]. Statistical significance was determined using one way ANOVA followed by the Holm–Sidak post hoc test or Kruskal–Wallis ANOVA on ranks followed by Dunn’s post hoc test according to the data distribution.
During necropsy, heart was rapidly excised, washed in cold saline and LV free wall was snap frozen in liquid nitrogen. After homogenization in liquid nitrogen, aliquots (aprox. 50 mg) were stored at -80 °C and used for PCR analysis of molecular markers of cardiotoxicity. Total RNA was isolated from rabbit LV myocardium using TRIzol reagent (Sigma-Aldrich). After reverse transcription using a High-Capacity cDNA Reverse Transcription Kit, qPCR was performed with TaqMan Fast Universal PCR Master Mix on QuantStudio 7 Flex Real-Time PCR System (all from Applied Biosystems, Foster City). […] Mean threshold cycle values were transformed into relative expression using the Pfaffl method. Commercial gene expression assays were obtained from Applied Biosystems and Generi Biotech (Hradec Králové, Czech Republic). The expression data were normalized by Hprt1 expression. Statistical significance was determined using one way ANOVA followed by the Holm–Sidak post hoc test or Kruskal–Wallis ANOVA on ranks followed by Dunn’s post hoc test according to the data distribution.

[7] = Topobexin alone, individual animals
[8] = Topobexin+DAU, individual animals

SMILES: CCCc1cc(=O)oc2c(C(=O)N3CCCc4ccccc43)c(OCCN3CCN(C)CC3)ccc12 [topobexin (9)]
- γH2AX level, mean ([1]; 0.1 µM + DAU 1.2 µM): 39.0271
- γH2AX level ([1]; 0.1 µM + DAU 1.2 µM): 36.8376 and 42.68 and 24.34 and 52.2506
- γH2AX level, mean ([1]; 0.1 µM alone): 2.32
- γH2AX level ([1]; 0.1 µM alone, DAU mean 100): 5.77 and 0.9222 and 2.18 and 0.4088
- γH2AX level, mean ([1]; 1 µM + DAU 1.2 µM): 7.0222
- γH2AX level ([1]; 1 µM + DAU 1.2 µM): 17.1283 and 3.616 and 2.74 and 4.605
- γH2AX level, mean ([1]; 1 µM alone): 3.099
- γH2AX level ([1]; 1 µM alone): 8.242 and 0.9663 and 2.352 and 0.8374
- γH2AX level, mean ([1]; 10 µM + DAU 1.2 µM): 3.08
- γH2AX level ([1]; 10 µM + DAU 1.2 µM): 6.036 and 4.664 and 0.5024 and 1.119
- γH2AX level, mean ([1]; 10 µM alone): 2.838
- γH2AX level ([1]; 10 µM alone): 3.615 and 3.033 and 2.846 and 1.856
- lowest concentration tested preventing DAU-induced γH2AX ([1]; NVCM): 0.1 µM
- Csp3/7 activity, mean ([2]; Cmpd 9 10 μM + DAU 1.2 μM): 1.924 fold change
- Csp3/7 activity ([2]; Cmpd 9 10 μM + DAU 1.2 μM): 1.455 fold change and 1.638 fold change and 2.77 fold change and 1.323 fold change and 2.6893 fold change and 1.665 fold change
- Csp3/7 activity, mean ([2]; Cmpd 9 10 μM alone): 0.9751 fold change
- Csp3/7 activity ([2]; Cmpd 9 10 μM alone): 1.249 fold change and 1.002 fold change and 1.008 fold change and 0.6241 fold change and 0.959 fold change and 1.009 fold change
- DAU-induced apoptotic signaling by caspases 3/7, 8, and 9 ([2]; NVCM): reduces DAU-induced apoptotic signaling
- Csp9 activity, mean ([3]; Cmpd 9 10 μM + DAU 1.2 μM): 1.834 fold change
- Csp9 activity ([3]; Cmpd 9 10 μM + DAU 1.2 μM): 1.395 fold change and 1.389 fold change and 2.498 fold change and 1.26 fold change and 2.708 fold change and 1.753 fold change
- Csp9 activity, mean ([3]; Cmpd 9 10 μM alone): 0.9606 fold change
- Csp9 activity ([3]; Cmpd 9 10 μM alone): 0.8436 fold change and 1.03 fold change and 0.994 fold change and 0.6408 fold change and 0.974 fold change and 1.282 fold change
- effect on antiproliferative effects of DAU ([4]; HL-60, any concentration tested): did not decrease the antiproliferative effects of DAU
- HL-60 proliferation (MTT), mean of independent replicates ([4]; compound 0.01 µM + DAU 1.2 µM): 39.4171
- HL-60 proliferation (MTT), mean of independent replicates ([4]; compound 0.1 µM + DAU 1.2 µM): 37.298
- HL-60 proliferation (MTT), mean of independent replicates ([4]; compound 1 µM + DAU 1.2 µM): 37.3478
- HL-60 proliferation (MTT), mean of independent replicates ([4]; compound 10 µM + DAU 1.2 µM): 18.3679
- HL-60 proliferation (MTT), mean of independent replicates ([4]; compound 30 µM + DAU 1.2 µM): 13.5189
- HL-60 proliferation (MTT), mean of independent replicates ([4]; compound 100 µM + DAU 1.2 µM): 1.772
- HL-60 proliferation (MTT), mean of independent replicates ([4]; compound alone 0.01 µM): 99.5782
- HL-60 proliferation (MTT), mean of independent replicates ([4]; compound alone 0.1 µM): 97.2193
- HL-60 proliferation (MTT), mean of independent replicates ([4]; compound alone 1 µM): 91.5968
- HL-60 proliferation (MTT), mean of independent replicates ([4]; compound alone 10 µM): 13.6521
- HL-60 proliferation (MTT), mean of independent replicates ([4]; compound alone 30 µM): 12.3063
- HL-60 proliferation (MTT), mean of independent replicates ([4]; compound alone 100 µM): 1.671
- concentration with statistically significant decrease in γH2AX levels ([5]; HL-60, DAU, highest concentration tested): 10 µM
- γH2AX level, mean of independent replicates ([5]; compound 0.1 µM + DAU 1.2 µM): 85.0292
- γH2AX level, mean of independent replicates ([5]; compound 0.3 µM + DAU 1.2 µM): 71.0118
- γH2AX level, mean of independent replicates ([5]; compound 1 µM + DAU 1.2 µM): 59.3884
- γH2AX level, mean of independent replicates ([5]; compound 3 µM + DAU 1.2 µM): 59.6746
- γH2AX level, mean of independent replicates ([5]; compound 10 µM + DAU 1.2 µM): 31.6085
- γH2AX level, mean of independent replicates ([5]; compound alone 0.1 µM): 21.4098
- γH2AX level, mean of independent replicates ([5]; compound alone 0.3 µM): 25.2396
- γH2AX level, mean of independent replicates ([5]; compound alone 1 µM): 23.449
- γH2AX level, mean of independent replicates ([5]; compound alone 3 µM): 19.8181
- γH2AX level, mean of independent replicates ([5]; compound alone 10 µM): 24.2375
- Body weight gain [6, 7]: 141.3 and 136.4 and 124.5 and 123.7 and 134.0 and 143.6 and 132.0
- Brain natriuretic peptide mRNA, LV myocardium [6, 7]: 3.72 and 0.42 and 0.55 and 0.81 and 0.90 and 0.28 and 2.33
- Collagen I alpha 1 mRNA [6, 7]: 1.54 and 1.27 and 0.81 and 0.88 and 1.14 and 1.41 and 1.19
- Fibronectin 1 mRNA [6, 7]: 1.41 and 1.30 and 1.55 and 1.58 and 1.78
- LV FS (LMV) [6, 7]: 42.0 and 40.5 and 42.5 and 43.5 and 39.0 and 43.0
- LV dP/dtmax [6, 7]: 7750 and 7165 and 9815 and 8309 and 8311 and 8034 and 7362
- Δ LV FS (LMV) [6, 7]: 1.0 and -1.5 and 2.0 and -1.0 and -2.5
- Body weight gain [6, 8]: 104.9 and 134.7 and 121.0 and 128.3 and 113.2 and 106.8 and 114.9 and 101.0 and 104.7
- Brain natriuretic peptide mRNA, LV myocardium [6, 8]: 1.55 and 3.15 and 0.69 and 1.65 and 1.04 and 0.65 and 5.19 and 1.00 and 2.01 and 1.22 and 0.48
- Collagen I alpha 1 mRNA [6, 8]: 0.77 and 1.31 and 1.34 and 2.10 and 1.65 and 1.81 and 2.59 and 0.95 and 1.66 and 0.86 and 1.09
- Fibronectin 1 mRNA [6, 8]: 0.87 and 1.85 and 1.50 and 1.99 and 1.56 and 2.18 and 3.87 and 1.34 and 1.94 and 1.25 and 1.18
- LV FS (LMV) [6, 8]: 42.0 and 43.5 and 39.3 and 42.3 and 44.0 and 42.8 and 40.0 and 41.0 and 43.8
- LV dP/dtmax [6, 8]: 8562 and 8147 and 6788 and 7928 and 8340 and 7337 and 7402 and 8558 and 8112 and 8066 and 7973
- Δ LV FS (LMV) [6, 8]: -1.5 and 3.0 and -2.3 and 0.5 and 4.0 and -0.3 and -4.0 and -1.0 and 0.0 and 2.3 and 2.0
- tolerability ([6]; alone or with DAU, weekly for 10 weeks): well tolerated
- Body weight gain ([6]; topobexin + DAU): matched the DAU group
- LV expression of BNP ([6]; topobexin + DAU): prevented by co-administration of topobexin (9)
- LV systolic function (echocardiography) ([6]; topobexin + DAU): effectively prevented the DAU-induced decrease in LV systolic function
- cardiomyocyte damage, plasma cTnT ([6]; topobexin + DAU): effectively prevented by topobexin (9)
- survival ([6]; topobexin + DAU): survived until the scheduled end of the experiment
- Body weight gain ([6]; topobexin alone): did not differ from the control group
